# ChEMBL document CHEMBL5653631, “A Potent and Selective ULK1 Inhibitor Suppresses Autophagy and Sensitizes Cancer Cells to Nutrient Stress” (iScience, 2018)
# Columns and labels:
# [1] = molecular target: T1, Mitogen-activated protein kinase kinase kinase 5 (Homo sapiens) (UniProt Q99683); test: Inhibition of human recombinant MAP3K5 at 40 nM related to control ULK1
# T1 sequence (whole entry): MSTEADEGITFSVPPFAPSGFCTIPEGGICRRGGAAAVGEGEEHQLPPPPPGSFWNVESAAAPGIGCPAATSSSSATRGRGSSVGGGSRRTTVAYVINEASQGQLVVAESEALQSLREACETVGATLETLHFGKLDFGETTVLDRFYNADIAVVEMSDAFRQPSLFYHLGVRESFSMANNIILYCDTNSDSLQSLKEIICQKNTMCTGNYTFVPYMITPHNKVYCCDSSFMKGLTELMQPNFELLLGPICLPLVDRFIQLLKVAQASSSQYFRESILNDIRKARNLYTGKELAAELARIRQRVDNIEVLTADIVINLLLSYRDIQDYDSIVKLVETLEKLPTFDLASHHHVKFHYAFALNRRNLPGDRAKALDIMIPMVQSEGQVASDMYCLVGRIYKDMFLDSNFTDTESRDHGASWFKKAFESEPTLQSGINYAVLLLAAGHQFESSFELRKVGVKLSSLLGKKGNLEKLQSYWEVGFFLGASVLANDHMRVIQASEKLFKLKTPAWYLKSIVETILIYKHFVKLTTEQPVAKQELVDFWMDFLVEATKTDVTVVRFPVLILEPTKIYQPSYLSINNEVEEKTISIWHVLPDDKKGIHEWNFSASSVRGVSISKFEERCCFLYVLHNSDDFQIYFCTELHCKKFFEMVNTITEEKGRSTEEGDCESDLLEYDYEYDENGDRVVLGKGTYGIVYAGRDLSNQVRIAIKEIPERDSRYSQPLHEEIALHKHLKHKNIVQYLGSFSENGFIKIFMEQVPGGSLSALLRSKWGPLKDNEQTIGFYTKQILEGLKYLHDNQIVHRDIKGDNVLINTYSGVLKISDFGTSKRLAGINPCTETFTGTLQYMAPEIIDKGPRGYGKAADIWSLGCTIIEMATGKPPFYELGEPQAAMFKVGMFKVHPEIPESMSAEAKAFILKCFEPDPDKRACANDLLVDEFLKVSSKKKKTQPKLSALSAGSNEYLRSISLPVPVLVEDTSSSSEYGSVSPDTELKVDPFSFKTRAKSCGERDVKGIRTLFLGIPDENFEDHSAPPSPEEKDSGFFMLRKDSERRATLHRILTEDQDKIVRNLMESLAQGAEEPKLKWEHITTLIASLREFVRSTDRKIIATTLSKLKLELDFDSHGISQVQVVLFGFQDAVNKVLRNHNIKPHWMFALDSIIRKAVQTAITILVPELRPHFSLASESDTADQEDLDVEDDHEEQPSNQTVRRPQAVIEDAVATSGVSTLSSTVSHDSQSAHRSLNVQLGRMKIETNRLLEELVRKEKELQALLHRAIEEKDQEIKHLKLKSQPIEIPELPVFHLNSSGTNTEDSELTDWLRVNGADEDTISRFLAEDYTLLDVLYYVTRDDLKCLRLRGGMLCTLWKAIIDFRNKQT
# [2] = molecular target: Ribosomal protein S6 kinase alpha-3 (Homo sapiens) (UniProt P51812); test: Inhibition of human recombinant RSK2 at 40 nM in presence of ATP by radiometric assay relative to control
# [3] = molecular target: T2, Serine/threonine-protein kinase Nek11 (Homo sapiens) (UniProt Q8NG66); test: Inhibition of human recombinant NEK11 at 15 nM in presence of ATP by radiometric assay relative to control
# T2 sequence (whole entry): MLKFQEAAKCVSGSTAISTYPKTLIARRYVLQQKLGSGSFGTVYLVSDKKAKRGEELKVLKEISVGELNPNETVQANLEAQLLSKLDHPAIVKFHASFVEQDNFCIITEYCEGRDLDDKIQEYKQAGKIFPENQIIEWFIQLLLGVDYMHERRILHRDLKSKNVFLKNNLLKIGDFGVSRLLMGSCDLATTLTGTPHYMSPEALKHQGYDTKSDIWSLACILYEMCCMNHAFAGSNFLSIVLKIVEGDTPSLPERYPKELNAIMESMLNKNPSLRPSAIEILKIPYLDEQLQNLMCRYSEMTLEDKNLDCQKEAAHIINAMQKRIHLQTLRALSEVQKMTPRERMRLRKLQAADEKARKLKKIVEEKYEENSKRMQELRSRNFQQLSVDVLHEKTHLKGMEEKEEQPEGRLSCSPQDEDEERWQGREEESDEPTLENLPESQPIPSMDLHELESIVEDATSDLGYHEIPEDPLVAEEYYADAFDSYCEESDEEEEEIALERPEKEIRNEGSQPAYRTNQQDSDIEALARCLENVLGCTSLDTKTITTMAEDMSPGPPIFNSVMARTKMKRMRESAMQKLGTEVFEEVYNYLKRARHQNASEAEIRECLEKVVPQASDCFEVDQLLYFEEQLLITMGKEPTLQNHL
# [4] = molecular target: [Pyruvate dehydrogenase (acetyl-transferring)] kinase isozyme 4, mitochondrial (Homo sapiens) (UniProt Q16654); test: Inhibition of human recombinant PDHK4 at 15 nM in presence of ATP by radiometric assay relative to control
# [5] = molecular target: Homeodomain-interacting protein kinase 1 (Homo sapiens) (UniProt Q86Z02); test: Inhibition of human recombinant HIPK1 at 15 nM related to control ULK1
# [6] = molecular target: T3, TGF-beta receptor type-1 (Homo sapiens) (UniProt P36897); test: Inhibition of human recombinant TGFbR1 at 500 nM related to control ULK1
# T3 sequence (whole entry): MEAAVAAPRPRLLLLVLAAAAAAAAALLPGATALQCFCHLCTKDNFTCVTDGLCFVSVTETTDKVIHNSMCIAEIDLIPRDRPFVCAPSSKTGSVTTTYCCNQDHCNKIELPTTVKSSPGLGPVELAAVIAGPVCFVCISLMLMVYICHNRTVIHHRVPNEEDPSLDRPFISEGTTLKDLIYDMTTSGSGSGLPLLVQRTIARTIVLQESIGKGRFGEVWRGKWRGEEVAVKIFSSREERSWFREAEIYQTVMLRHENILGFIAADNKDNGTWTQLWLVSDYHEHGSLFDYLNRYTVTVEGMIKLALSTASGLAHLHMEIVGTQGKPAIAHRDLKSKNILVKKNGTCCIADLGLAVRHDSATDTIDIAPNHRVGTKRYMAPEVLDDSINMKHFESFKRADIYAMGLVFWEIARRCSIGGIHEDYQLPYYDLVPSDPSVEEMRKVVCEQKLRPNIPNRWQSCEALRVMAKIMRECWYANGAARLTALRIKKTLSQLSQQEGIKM
# [7] = molecular target: BDNF/NT-3 growth factors receptor (Homo sapiens) (UniProt Q16620); test: Inhibition of human recombinant TRKB at 500 nM related to control ULK1
# [8] = molecular target: Dual specificity tyrosine-phosphorylation-regulated kinase 1B (Homo sapiens) (UniProt Q9Y463); test: Inhibition of human recombinant DYRK1B at 500 nM related to control ULK1
# Sequence of Dual specificity tyrosine-phosphorylation-regulated kinase 1B (Homo sapiens) (Q9Y463 whole entry, looked up): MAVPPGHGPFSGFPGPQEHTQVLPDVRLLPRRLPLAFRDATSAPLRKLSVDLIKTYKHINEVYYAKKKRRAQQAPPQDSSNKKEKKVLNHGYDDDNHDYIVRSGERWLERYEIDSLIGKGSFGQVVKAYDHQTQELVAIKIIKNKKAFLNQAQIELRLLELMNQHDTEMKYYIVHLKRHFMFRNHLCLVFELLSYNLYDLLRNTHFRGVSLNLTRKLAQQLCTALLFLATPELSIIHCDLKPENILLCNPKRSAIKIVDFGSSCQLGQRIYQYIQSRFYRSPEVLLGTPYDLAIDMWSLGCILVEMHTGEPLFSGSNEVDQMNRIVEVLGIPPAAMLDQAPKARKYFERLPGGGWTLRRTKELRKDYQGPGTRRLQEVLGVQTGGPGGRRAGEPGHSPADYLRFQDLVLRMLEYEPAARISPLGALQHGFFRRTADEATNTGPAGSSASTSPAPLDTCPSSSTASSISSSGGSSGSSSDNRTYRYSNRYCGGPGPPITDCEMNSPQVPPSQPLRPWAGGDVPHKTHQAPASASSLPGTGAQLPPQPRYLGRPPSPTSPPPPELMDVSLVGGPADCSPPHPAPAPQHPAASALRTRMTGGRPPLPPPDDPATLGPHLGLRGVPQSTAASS
# Sequence of [Pyruvate dehydrogenase (acetyl-transferring)] kinase isozyme 4, mitochondrial (Homo sapiens) (Q16654 whole entry, looked up): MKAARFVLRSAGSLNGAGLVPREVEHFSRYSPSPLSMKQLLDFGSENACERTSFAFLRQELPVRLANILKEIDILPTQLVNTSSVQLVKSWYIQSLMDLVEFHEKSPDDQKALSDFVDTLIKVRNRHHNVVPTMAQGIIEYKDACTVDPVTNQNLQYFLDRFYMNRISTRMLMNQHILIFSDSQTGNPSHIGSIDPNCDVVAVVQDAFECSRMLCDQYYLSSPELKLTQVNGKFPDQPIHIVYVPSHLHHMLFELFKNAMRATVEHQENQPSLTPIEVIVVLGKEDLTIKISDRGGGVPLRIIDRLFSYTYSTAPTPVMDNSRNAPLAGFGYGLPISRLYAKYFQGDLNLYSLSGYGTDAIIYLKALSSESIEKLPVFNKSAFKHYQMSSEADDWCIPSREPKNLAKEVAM
# Sequence of Homeodomain-interacting protein kinase 1 (Homo sapiens) (Q86Z02 whole entry, looked up): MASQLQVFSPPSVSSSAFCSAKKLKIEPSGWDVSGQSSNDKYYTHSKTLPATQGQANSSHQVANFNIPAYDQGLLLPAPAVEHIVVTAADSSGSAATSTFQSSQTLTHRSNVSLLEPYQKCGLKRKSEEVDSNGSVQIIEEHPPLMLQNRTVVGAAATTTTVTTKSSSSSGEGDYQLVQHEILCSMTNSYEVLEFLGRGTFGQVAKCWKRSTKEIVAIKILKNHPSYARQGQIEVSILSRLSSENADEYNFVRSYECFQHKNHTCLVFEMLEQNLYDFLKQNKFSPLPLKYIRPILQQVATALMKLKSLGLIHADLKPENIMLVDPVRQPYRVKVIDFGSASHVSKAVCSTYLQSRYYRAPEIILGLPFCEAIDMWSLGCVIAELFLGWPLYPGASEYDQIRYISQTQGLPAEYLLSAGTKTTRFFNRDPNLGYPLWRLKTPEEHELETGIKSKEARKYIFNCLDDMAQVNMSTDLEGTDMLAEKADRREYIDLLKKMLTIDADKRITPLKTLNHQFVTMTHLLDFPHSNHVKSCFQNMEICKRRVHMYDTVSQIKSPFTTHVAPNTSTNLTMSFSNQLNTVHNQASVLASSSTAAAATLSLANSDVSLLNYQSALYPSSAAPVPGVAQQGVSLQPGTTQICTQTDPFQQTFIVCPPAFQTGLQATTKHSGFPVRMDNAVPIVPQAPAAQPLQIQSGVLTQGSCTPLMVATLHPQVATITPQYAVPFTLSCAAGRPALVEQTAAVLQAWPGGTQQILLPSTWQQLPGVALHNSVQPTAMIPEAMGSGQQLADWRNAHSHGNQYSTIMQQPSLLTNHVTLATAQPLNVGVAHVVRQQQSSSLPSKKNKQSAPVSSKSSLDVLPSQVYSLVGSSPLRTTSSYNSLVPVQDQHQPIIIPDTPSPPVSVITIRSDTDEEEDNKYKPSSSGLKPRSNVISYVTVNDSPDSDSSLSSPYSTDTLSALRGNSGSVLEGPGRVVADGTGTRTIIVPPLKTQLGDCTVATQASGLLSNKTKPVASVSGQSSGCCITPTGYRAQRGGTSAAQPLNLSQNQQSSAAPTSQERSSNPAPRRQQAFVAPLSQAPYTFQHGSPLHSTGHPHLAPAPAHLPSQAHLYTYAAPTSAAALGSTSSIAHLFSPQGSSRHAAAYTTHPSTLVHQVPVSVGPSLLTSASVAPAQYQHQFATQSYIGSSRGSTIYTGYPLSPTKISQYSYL
# Sequence of Ribosomal protein S6 kinase alpha-3 (Homo sapiens) (P51812 whole entry): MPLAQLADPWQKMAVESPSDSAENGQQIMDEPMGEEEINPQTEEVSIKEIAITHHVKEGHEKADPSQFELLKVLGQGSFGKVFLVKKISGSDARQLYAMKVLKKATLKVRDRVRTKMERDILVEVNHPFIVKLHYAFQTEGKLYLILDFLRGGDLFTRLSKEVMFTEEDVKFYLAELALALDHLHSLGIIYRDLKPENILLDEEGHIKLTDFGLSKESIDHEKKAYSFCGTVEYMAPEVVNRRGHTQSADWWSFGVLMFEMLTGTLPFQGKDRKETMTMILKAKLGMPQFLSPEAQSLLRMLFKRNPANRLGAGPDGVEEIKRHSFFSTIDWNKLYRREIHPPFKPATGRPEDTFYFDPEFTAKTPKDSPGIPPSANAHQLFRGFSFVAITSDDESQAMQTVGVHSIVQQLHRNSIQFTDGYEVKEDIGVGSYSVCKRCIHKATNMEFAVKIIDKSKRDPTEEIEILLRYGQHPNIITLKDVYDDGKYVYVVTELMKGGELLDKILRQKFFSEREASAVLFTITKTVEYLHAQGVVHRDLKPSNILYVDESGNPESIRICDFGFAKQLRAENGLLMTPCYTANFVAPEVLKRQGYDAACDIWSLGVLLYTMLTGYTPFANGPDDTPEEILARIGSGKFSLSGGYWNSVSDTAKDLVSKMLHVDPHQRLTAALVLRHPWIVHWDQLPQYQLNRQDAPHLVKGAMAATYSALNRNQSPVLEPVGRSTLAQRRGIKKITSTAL
# Sequence of BDNF/NT-3 growth factors receptor (Homo sapiens) (Q16620 32-822 limits assumed): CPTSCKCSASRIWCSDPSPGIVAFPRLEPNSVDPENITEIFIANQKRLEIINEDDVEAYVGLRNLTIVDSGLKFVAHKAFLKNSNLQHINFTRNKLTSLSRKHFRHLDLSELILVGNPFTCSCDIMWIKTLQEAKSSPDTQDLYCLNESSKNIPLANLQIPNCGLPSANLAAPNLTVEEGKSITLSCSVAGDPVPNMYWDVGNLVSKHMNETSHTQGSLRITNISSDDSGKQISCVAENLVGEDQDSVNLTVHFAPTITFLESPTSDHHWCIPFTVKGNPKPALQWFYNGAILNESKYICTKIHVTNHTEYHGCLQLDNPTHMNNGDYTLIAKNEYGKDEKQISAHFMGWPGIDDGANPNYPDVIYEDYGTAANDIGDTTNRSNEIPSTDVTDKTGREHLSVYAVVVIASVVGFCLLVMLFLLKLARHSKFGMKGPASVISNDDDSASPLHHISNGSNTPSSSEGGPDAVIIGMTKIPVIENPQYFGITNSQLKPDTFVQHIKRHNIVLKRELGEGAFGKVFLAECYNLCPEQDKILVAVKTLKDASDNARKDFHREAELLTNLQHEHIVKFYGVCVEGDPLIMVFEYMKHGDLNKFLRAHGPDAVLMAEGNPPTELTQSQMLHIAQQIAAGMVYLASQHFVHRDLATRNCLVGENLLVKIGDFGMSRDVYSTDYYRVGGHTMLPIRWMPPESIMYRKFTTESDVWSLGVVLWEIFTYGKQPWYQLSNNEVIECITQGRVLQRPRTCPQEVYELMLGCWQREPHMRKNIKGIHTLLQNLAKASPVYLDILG
compound,measurement,setting,value
O=C(N[C@@H](C1CC1)C(F)(F)F)c1cc(-c2cnn3cc(-c4ccc(F)cc4)cnc23)cs1,fold change (FC),[1],0
same,inhibition,[2],0%
CC(C)[C@H](NC(=O)c1cc(-c2cnn3cc(-c4ccc(OCCN5CCCCC5)cc4)cnc23)cs1)C(F)(F)F,inhibition,[3],0%
same,inhibition,[4],2%
same,fold change (FC),[5],0
CNC(=O)c1ccccc1Oc1nc(Nc2cc(OC)c(OC)c(OC)c2)ncc1Br,fold change (FC),[6],0
same,fold change (FC),[7],0.65
same,fold change (FC),[8],0
